From EPA's ToxValDB 9.5 (doi:10.2903/j.efsa.2010.1704)
≈ marks a conversion by molar mass, not a printed value.

Key:
Anas platyrhynchos = settings: oral, mortality
Canidae = settings: oral, Dog Other, organ weight
Typhlodromus pyri = settings: acute; duration: 7 days; mortality
Coturnix japonica = settings: reproduction developmental
Pimephales promelas = settings: chronic/long-term; duration: 35 days; growth
Daphnia magna = settings: chronic/long-term; duration: 21 days; reproduction
Colinus virginianus = settings: acute, oral, mortality
Apis mellifera = settings: acute; duration: 48 hours; oral; unspecified; mortality
Oncorhynchus mykiss = settings: acute; duration: 96 hours; mortality
Oryctolagus sp. = settings: reproduction developmental; body weight

Clc1ccc(C2(Cn3cncn3)CC(Br)CO2)c(Cl)c1 (stereo not given) [Bromuconazole]
LD50 (Anas platyrhynchos; acute, unspecified): > 2150 mg/kg-day | LC50 (Anas platyrhynchos; short-term, feed): > 684 mg/kg-day | NOAEL (Canidae; chronic, duration: 1 years): 2.5 mg/kg-day | NOAEL (Canidae; subchronic, duration: 90 days): 2.5 mg/kg-day | LEL (Typhlodromus pyri): 260 g/ha | LD50 (Rattus norvegicus; acute, oral, F, mortality): 328 mg/kg-day | NOAEL (Rattus norvegicus; chronic, duration: 2 years, oral, diet, histopathology: nonneoplastic): 0.88 mg/kg-day | NOEL (Rattus norvegicus; chronic, histopathology: nonneoplastic): 13.8 mg/kg-day | NOAEL (Rattus norvegicus; developmental, development): 10 mg/kg-day | NOEL (Rattus norvegicus; reproduction developmental, body weight): 1.3 mg/kg-day | NOEC (Coturnix japonica): 26.5 mg/kg-day | NOEC (Pimephales promelas): 0.065 mg/L | NOEC (Daphnia magna): 0.02 mg/L | LC50 (Colinus virginianus; diet): > 778 mg/kg-day | LD50 (Colinus virginianus): > 2150 mg/kg-day | LC50 (Tagia sp.; acute, duration: 14 days, mortality): > 1000 mg/kg | NOEC (Tagia sp.; chronic/long-term, duration: 56 days): 37.2 mg/kg | LD50 (Apis mellifera): > 100 µg/piece | LC50 (Oncorhynchus mykiss): 1.7 µg/mL (≈ 4.51 µM) | NOEL (Oryctolagus sp.): 12.5 mg/kg-day
